Tested on: MV-4-11 cells
Test: Gene expression microarray analysis (Affymetrix PrimeView) and GSEA
Type: cell-based, human
Design: RFU PODN (11730768_x_at) / Fold change /veh PODN (11730768_x_at) / RFU LINC00158 (11744669_a_at) / Fold change /veh LINC00158 (11744669_a_at) / RFU DUSP10 (11751237_a_at) / Fold change /veh DUSP10 (11751237_a_at) / RFU ID3 (11757404_x_at) / Fold change /veh ID3 (11757404_x_at) / RFU PLEKHG5 (11737974_s_at) / Fold change /veh PLEKHG5 (11737974_s_at) / RFU LRRC4B (11730491_at) / Fold change /veh LRRC4B (11730491_at) / RFU GIMAP4 (11747438_a_at) / Fold change /veh GIMAP4 (11747438_a_at) / RFU KRT8 (11758183_x_at) / Fold change /veh KRT8 (11758183_x_at) / RFU CNN1 (11734310_a_at) / Fold change /veh CNN1 (11734310_a_at) / RFU VPS37D (11726825_at) / Fold change /veh VPS37D (11726825_at) / RFU C10orf10 (11716522_x_at) / Fold change /veh C10orf10 (11716522_x_at) / RFU KIR2DL2 /// KIR2DL4 /// KIR2DL5A /// KIR2DL5B /// KIR2DS1 /// KIR2DS2 /// KIR2DS3 /// KIR2DS4 /// KIR3DL3 /// KIR3DL3 /// KIR3DS1 (11738374_at) / Fold change /veh KIR2DL2 /// KIR2DL4 /// KIR2DL5A /// KIR2DL5B /// KIR2DS1 /// KIR2DS2 /// KIR2DS3 /// KIR2DS4 /// KIR3DL3 /// KIR3DL3 /// KIR3DS1 (11738374_at) / RFU C1QL1 (11718748_at) / Fold change /veh C1QL1 (11718748_at) / RFU TMPRSS4 (11747572_a_at) / Fold change /veh TMPRSS4 (11747572_a_at) / RFU HAMP (11756126_x_at) / Fold change /veh HAMP (11756126_x_at) / RFU RNFT2 (11725882_a_at) / Fold change /veh RNFT2 (11725882_a_at) / RFU NR4A2 (11747474_a_at) / Fold change /veh NR4A2 (11747474_a_at) / RFU ABCC12 (11746883_a_at) / Fold change /veh ABCC12 (11746883_a_at) / RFU TMEM136 (11760407_x_at) / Fold change /veh TMEM136 (11760407_x_at) / RFU CLDN22 /// WWC2 (11732394_at) / Fold change /veh CLDN22 /// WWC2 (11732394_at) / RFU HLA-DPB1 (11760878_x_at) / Fold change /veh HLA-DPB1 (11760878_x_at) / RFU SPINT1 (11716480_a_at) / Fold change /veh SPINT1 (11716480_a_at) / RFU GAP43 (11754022_s_at) / Fold change /veh GAP43 (11754022_s_at) / RFU A4GNT (11735810_at) / Fold change /veh A4GNT (11735810_at) / RFU PRB3 (11715151_x_at) / Fold change /veh PRB3 (11715151_x_at) / RFU TUBB4B (11761932_at) / Fold change /veh TUBB4B (11761932_at) / RFU CAPN14 (11732068_a_at) / Fold change /veh CAPN14 (11732068_a_at) / RFU TMCC2 (11721928_a_at) / Fold change /veh TMCC2 (11721928_a_at) / RFU IRGQ (11745062_a_at) / Fold change /veh IRGQ (11745062_a_at) / RFU FAM174B (11720279_a_at) / Fold change /veh FAM174B (11720279_a_at) / RFU TMPRSS4 (11748680_a_at) / Fold change /veh TMPRSS4 (11748680_a_at) / RFU FAM212B (11763350_a_at) / Fold change /veh FAM212B (11763350_a_at) / RFU PLEKHG5 (11743358_a_at) / Fold change /veh PLEKHG5 (11743358_a_at) / RFU ZSCAN30 (11745921_a_at) / Fold change /veh ZSCAN30 (11745921_a_at) / RFU CMKLR1 (11741424_a_at) / Fold change /veh CMKLR1 (11741424_a_at) / RFU LOC101060620 /// MAPK8IP1 (11723275_at) / Fold change /veh LOC101060620 /// MAPK8IP1 (11723275_at) / RFU SPTSSB (11747773_x_at) / Fold change /veh SPTSSB (11747773_x_at) / RFU PRSS12 (11739890_at) / Fold change /veh PRSS12 (11739890_at) / RFU BIN1 (11741810_x_at) / Fold change /veh BIN1 (11741810_x_at) / RFU WNT11 (11732464_a_at) / Fold change /veh WNT11 (11732464_a_at) / RFU C10orf10 (11716521_a_at) / Fold change /veh C10orf10 (11716521_a_at) / RFU C5orf56 (11738089_at) / Fold change /veh C5orf56 (11738089_at) / RFU CYB561 (11721691_x_at) / Fold change /veh CYB561 (11721691_x_at) / RFU ANKRD19P (11752326_a_at) / Fold change /veh ANKRD19P (11752326_a_at) / RFU OR2T12 /// OR2T33 /// OR2T8 (11738714_s_at) / Fold change /veh OR2T12 /// OR2T33 /// OR2T8 (11738714_s_at) / RFU VCAN (11748164_a_at) / Fold change /veh VCAN (11748164_a_at) / RFU JSRP1 (11732532_at) / Fold change /veh JSRP1 (11732532_at) / RFU KRTAP10-11 (11738290_x_at) / Fold change /veh KRTAP10-11 (11738290_x_at) / RFU MYO3A (11730013_a_at) / Fold change /veh MYO3A (11730013_a_at) / RFU EBF3 (11725865_a_at) / Fold change /veh EBF3 (11725865_a_at) / RFU CAMK2N1 (11719241_x_at) / Fold change /veh CAMK2N1 (11719241_x_at) / RFU C5orf56 (11738088_a_at) / Fold change /veh C5orf56 (11738088_a_at) / RFU OLFML3 (11715873_a_at) / Fold change /veh OLFML3 (11715873_a_at) / RFU LOC100653217 /// NTM (11731650_a_at) / Fold change /veh LOC100653217 /// NTM (11731650_a_at) / RFU MAPK11 (11762145_a_at) / Fold change /veh MAPK11 (11762145_a_at) / RFU FIZ1 (11724087_x_at) / Fold change /veh FIZ1 (11724087_x_at) / RFU OASL (11726364_x_at) / Fold change /veh OASL (11726364_x_at) / RFU SOX15 (11748057_x_at) / Fold change /veh SOX15 (11748057_x_at) / RFU CD79A (11719716_a_at) / Fold change /veh CD79A (11719716_a_at) / RFU HIST1H1D (11736915_at) / Fold change /veh HIST1H1D (11736915_at) / RFU CASKIN2 (11723855_a_at) / Fold change /veh CASKIN2 (11723855_a_at) / RFU LOC730098 (11760151_x_at) / Fold change /veh LOC730098 (11760151_x_at) / RFU OR4N2 (11742367_at) / Fold change /veh OR4N2 (11742367_at) / RFU PRRT2 (11749266_a_at) / Fold change /veh PRRT2 (11749266_a_at) / RFU SNX32 (11753110_a_at) / Fold change /veh SNX32 (11753110_a_at) / RFU CDHR5 (11726645_a_at) / Fold change /veh CDHR5 (11726645_a_at) / RFU RCAN1 (11760418_a_at) / Fold change /veh RCAN1 (11760418_a_at) / RFU FAM167A (11723789_a_at) / Fold change /veh FAM167A (11723789_a_at) / RFU FAM26E (11764081_at) / Fold change /veh FAM26E (11764081_at) / RFU ISYNA1 (11749810_s_at) / Fold change /veh ISYNA1 (11749810_s_at) / RFU ACY1 (11761880_at) / Fold change /veh ACY1 (11761880_at) / RFU 11764098_at / Fold change /veh 11764098_at / RFU SAMD14 (11745864_x_at) / Fold change /veh SAMD14 (11745864_x_at) / RFU NPB (11741838_a_at) / Fold change /veh NPB (11741838_a_at) / RFU TMPRSS6 (11731388_a_at) / Fold change /veh TMPRSS6 (11731388_a_at) / RFU KRTAP10-2 (11738614_at) / Fold change /veh KRTAP10-2 (11738614_at) / RFU ARHGAP8 /// PRR5-ARHGAP8 (11727945_x_at) / Fold change /veh ARHGAP8 /// PRR5-ARHGAP8 (11727945_x_at) / RFU KRTAP5-7 /// NADSYN1 (11734609_at) / Fold change /veh KRTAP5-7 /// NADSYN1 (11734609_at) / RFU RASL12 (11751679_a_at) / Fold change /veh RASL12 (11751679_a_at) / RFU CDKN2B (11736163_a_at) / Fold change /veh CDKN2B (11736163_a_at) / RFU PRF1 (11729649_at) / Fold change /veh PRF1 (11729649_at) / RFU, ZNF638 /// ZNF638-IT1 / Fold change vs veh, ZNF638 /// ZNF638-IT1 / RFU, PANK3 / Fold change vs veh, PANK3 / RFU, SH3YL1 / Fold change vs veh, SH3YL1 / RFU, ZEB2 / Fold change vs veh, ZEB2 / RFU, NRIP1 / Fold change vs veh, NRIP1 / RFU, PTTG1IP / Fold change vs veh, PTTG1IP / RFU, CAPN2 / Fold change vs veh, CAPN2 / RFU, MED14 / Fold change vs veh, MED14 / RFU, SNORA58 / Fold change vs veh, SNORA58 / RFU, C1orf63 / Fold change vs veh, C1orf63 / RFU, LRRFIP1 / Fold change vs veh, LRRFIP1 / RFU, NDUFAF7 / Fold change vs veh, NDUFAF7 / RFU, SLC12A2 / Fold change vs veh, SLC12A2 / RFU, IBTK / Fold change vs veh, IBTK / RFU, ESF1 / Fold change vs veh, ESF1 / Fold change vs veh, TMEM50B / RFU, TAOK1 / Fold change vs veh, TAOK1 / RFU, ACBD3 / Fold change vs veh, ACBD3 / RFU, TMA16 / Fold change vs veh, TMA16 / RFU, RWDD3 / Fold change vs veh, RWDD3 / RFU, BCAT1 / Fold change vs veh, BCAT1 / RFU, EDEM3 / Fold change vs veh, EDEM3 / RFU, TMEM33 / Fold change vs veh, TMEM33 / RFU, WDR75 / Fold change vs veh, WDR75 / RFU, AHCTF1 / Fold change vs veh, AHCTF1 / RFU, TFRC / Fold change vs veh, TFRC / RFU, ZDHHC17 / Fold change vs veh, ZDHHC17 / RFU, NOM1 / Fold change vs veh, NOM1 / RFU, ARL8B / Fold change vs veh, ARL8B / RFU, ZBTB11 / Fold change vs veh, ZBTB11 / RFU, TAMM41 / Fold change vs veh, TAMM41 / RFU, KIAA1704 /// LOC100996395 / Fold change vs veh, KIAA1704 /// LOC100996395 / RFU, ING1 / Fold change vs veh, ING1 / RFU, TRMT61B / Fold change vs veh, TRMT61B / RFU, FUBP3 / Fold change vs veh, FUBP3 / RFU, TP53 / Fold change vs veh, TP53 / RFU, TNKS2 / Fold change vs veh, TNKS2 / RFU, ZFP14 / Fold change vs veh, ZFP14 / RFU, ACTR2 / Fold change vs veh, ACTR2 / RFU, PPP3R1 / Fold change vs veh, PPP3R1 / RFU, PIK3R1 / Fold change vs veh, PIK3R1 / RFU, HNRNPA1 / Fold change vs veh, HNRNPA1 / RFU, RNF170 / Fold change vs veh, RNF170 / RFU, ZNF28 / Fold change vs veh, ZNF28 / RFU, RNGTT / Fold change vs veh, RNGTT / RFU, OGT / Fold change vs veh, OGT / RFU, BRD1 / Fold change vs veh, BRD1 / RFU, MARS / Fold change vs veh, MARS / RFU, ZNF655 / Fold change vs veh, ZNF655 / RFU, FAHD1 / Fold change vs veh, FAHD1 / RFU, BDP1 / Fold change vs veh, BDP1 / RFU, LRRCC1 / Fold change vs veh, LRRCC1 / RFU, ARID1A / Fold change vs veh, ARID1A / RFU, ZNF146 / Fold change vs veh, ZNF146 / RFU, ZNF330 / Fold change vs veh, ZNF330 / RFU, GPN3 / Fold change vs veh, GPN3 / RFU, C9orf123 / Fold change vs veh, C9orf123 / RFU, N4BP2L2 / Fold change vs veh, N4BP2L2 / RFU, ARFIP1 / Fold change vs veh, ARFIP1 / RFU, FAM179B / Fold change vs veh, FAM179B / RFU, BCL10 / Fold change vs veh, BCL10 / RFU, UHRF1BP1L / Fold change vs veh, UHRF1BP1L / RFU, BET1 / Fold change vs veh, BET1 / RFU, CNOT2 / Fold change vs veh, CNOT2 / RFU, ZNF268 / Fold change vs veh, ZNF268 / Fold change vs veh, ZNF507 / RFU, DGCR2 / Fold change vs veh, DGCR2 / RFU, WDSUB1 / Fold change vs veh, WDSUB1 / Fold change vs veh, HSP90B1 /// MIR3652 / RFU, ADSS / Fold change vs veh, ADSS / RFU, GK / Fold change vs veh, GK / RFU, ZNF148 / Fold change vs veh, ZNF148 / RFU, TAF9 / Fold change vs veh, TAF9 / RFU, SLC1A5 / Fold change vs veh, SLC1A5 / RFU, SLMO2 / Fold change vs veh, SLMO2 / RFU, ABCC4 / Fold change vs veh, ABCC4 / RFU, LOC101060439 /// RAP1B / Fold change vs veh, LOC101060439 /// RAP1B / RFU, RFX7 / Fold change vs veh, RFX7 / RFU, GTPBP10 / Fold change vs veh, GTPBP10 / RFU, CNEP1R1 / Fold change vs veh, CNEP1R1 / RFU, BIVM-ERCC5 /// ERCC5 / Fold change vs veh, BIVM-ERCC5 /// ERCC5 / RFU, ILF3 / Fold change vs veh, ILF3 / RFU 11762660_at / Fold change /veh 11762660_at / RFU VCAN (11757783_s_at) / Fold change /veh VCAN (11757783_s_at) / RFU DDX43 (11728927_at) / Fold change /veh DDX43 (11728927_at) / RFU KRT8 (11758188_x_at) / Fold change /veh KRT8 (11758188_x_at) / RFU NKD1 (11759106_at) / Fold change /veh NKD1 (11759106_at) / RFU SRD5A1 (11742802_a_at) / Fold change /veh SRD5A1 (11742802_a_at) / RFU TPSAB1 /// TPSB2 (11721975_s_at) / Fold change /veh TPSAB1 /// TPSB2 (11721975_s_at) / RFU GSTM3 (11746129_a_at) / Fold change /veh GSTM3 (11746129_a_at) / RFU IL23R (11737362_x_at) / Fold change /veh IL23R (11737362_x_at) / RFU TMEM51 (11727254_a_at) / Fold change /veh TMEM51 (11727254_a_at) / RFU PIWIL2 (11732686_x_at) / Fold change /veh PIWIL2 (11732686_x_at) / RFU ORM1 (11744905_x_at) / Fold change /veh ORM1 (11744905_x_at) / RFU CCDC152 (11743942_at) / Fold change /veh CCDC152 (11743942_at) / RFU ECM1 (11717891_a_at) / Fold change /veh ECM1 (11717891_a_at) / RFU IL23R (11748794_a_at) / Fold change /veh IL23R (11748794_a_at) / RFU TNFAIP8L3 (11732012_x_at) / Fold change /veh TNFAIP8L3 (11732012_x_at) / RFU MBOAT4 (11741988_at) / Fold change /veh MBOAT4 (11741988_at) / RFU 11764193_at / Fold change /veh 11764193_at / RFU TMEM53 (11763286_at) / Fold change /veh TMEM53 (11763286_at) / RFU MAGEB2 (11727129_at) / Fold change /veh MAGEB2 (11727129_at) / RFU TMEM200A (11744735_a_at) / Fold change /veh TMEM200A (11744735_a_at) / RFU CCDC152 (11751479_a_at) / Fold change /veh CCDC152 (11751479_a_at) / RFU FAM211A (11726209_a_at) / Fold change /veh FAM211A (11726209_a_at) / RFU RGS16 (11746705_a_at) / Fold change /veh RGS16 (11746705_a_at) / RFU VCAN (11755009_s_at) / Fold change /veh VCAN (11755009_s_at) / RFU RHOB (11743442_s_at) / Fold change /veh RHOB (11743442_s_at) / RFU RGS16 (11720943_a_at) / Fold change /veh RGS16 (11720943_a_at) / RFU RGS16 (11720944_at) / Fold change /veh RGS16 (11720944_at) / RFU, VPS4B / Fold change vs veh, VPS4B / RFU, CREB1 / Fold change vs veh, CREB1 / RFU, DNAJC13 / Fold change vs veh, DNAJC13 / RFU, GNAQ / Fold change vs veh, GNAQ / RFU, CDK5R1 / Fold change vs veh, CDK5R1 / RFU, ZRANB3 / Fold change vs veh, ZRANB3 / RFU, CUL4A / Fold change vs veh, CUL4A / RFU, CCNY / Fold change vs veh, CCNY / RFU, UFL1 / Fold change vs veh, UFL1 / RFU, COG3 / Fold change vs veh, COG3 / RFU, DIAPH2 / Fold change vs veh, DIAPH2 / RFU, SKA2 / Fold change vs veh, SKA2 / RFU, AFF3 / Fold change vs veh, AFF3 / RFU, LMF1 / Fold change vs veh, LMF1 / RFU, IPO11 / Fold change vs veh, IPO11 / RFU, DFFB / Fold change vs veh, DFFB / RFU, FOXP1 / Fold change vs veh, FOXP1 / RFU, CARD8 / Fold change vs veh, CARD8 / RFU, STRN3 / Fold change vs veh, STRN3 / RFU, ADK / Fold change vs veh, ADK / RFU, RASSF2 / Fold change vs veh, RASSF2 / RFU, WIPF1 / Fold change vs veh, WIPF1 / RFU, LARP1B / Fold change vs veh, LARP1B / RFU, RASA1 / Fold change vs veh, RASA1 / RFU, RB1 / Fold change vs veh, RB1 / RFU, PPFIA1 / Fold change vs veh, PPFIA1 / RFU, MAT2A / Fold change vs veh, MAT2A / RFU, CCT5 / Fold change vs veh, CCT5 / RFU, WDR92 / Fold change vs veh, WDR92 / RFU, CUX1 / Fold change vs veh, CUX1 / RFU, TTC7A / Fold change vs veh, TTC7A / RFU, TMEM135 / Fold change vs veh, TMEM135 / RFU, DEPTOR / Fold change vs veh, DEPTOR / RFU, CPM / Fold change vs veh, CPM / RFU, DNAJB6 / Fold change vs veh, DNAJB6 / RFU, CACNA2D3 / Fold change vs veh, CACNA2D3 / RFU, DTX4 / Fold change vs veh, DTX4 / RFU, TFCP2 / Fold change vs veh, TFCP2 / RFU, GMCL1 /// GMCL1P1 / Fold change vs veh, GMCL1 /// GMCL1P1 / RFU, AEBP2 / Fold change vs veh, AEBP2 / RFU, SNHG1 /// SNORD22 /// SNORD25 /// SNORD26 /// SNORD27 /// SNORD28 /// SNORD29 /// SNORD31 / Fold change vs veh, SNHG1 /// SNORD22 /// SNORD25 /// SNORD26 /// SNORD27 /// SNORD28 /// SNORD29 /// SNORD31 / Fold change (Aza/veh), C12orf56 (ProbeSet 11735607_a_at) / Fold change (ACY-1035/veh), C12orf56 (ProbeSet 11735607_a_at) / Fold change (Aza/veh), FGFR1OP (ProbeSet 11751329_s_at) / Fold change (ACY-1035/veh), FGFR1OP (ProbeSet 11751329_s_at) / Fold change (Aza/veh), VPS36 (ProbeSet 11739960_a_at) / Fold change (ACY-1035/veh), VPS36 (ProbeSet 11739960_a_at) / RFU SYPL1 (11715823_x_at) / Fold change /veh SYPL1 (11715823_x_at) / RFU IGFBP7 (11715501_s_at) / Fold change /veh IGFBP7 (11715501_s_at) / RFU REEP3 (11722064_at) / Fold change /veh REEP3 (11722064_at) / RFU IGLL1 (11728026_x_at) / Fold change /veh IGLL1 (11728026_x_at): dose or concentration left out as unconfirmed
Settings: MV-4-11 cells, 48 hours

Nc1ccc(-c2cccs2)cc1NC(=O)c1ccc2c(c1)cc(C1CC1)n2CCN1CCOCC1 [ACY-1035]
Fold change /veh DUSP10 (11751237_a_at): 1.17
